Experimental data taken from US10087178B2, “Substituted spiropyrido[1,2-a]pyrazine derivative and medicinal use thereof as HIV integrase inhibitor” (priority 2012, dated 2018).
Counter-ions that a name gives are not always drawn. Like-named read-outs stand apart in the source and are kept apart here.

System: HIV-1 NL4-3 strain
Assay: Evaluation of antiviral activity: acute infection system of MT-4 cell with HIV-1 NL4-3 strain
Format: cell-based
[1] = Human immunodeficiency virus 1, NL43, MT4, 120 h, MT-4 cells infected with HIV-1 NL4-3 strain (MOI 0.05), cultured 5 days, Cell Titer-Glo, read-out: antiviral activity (EC50)
[2] = Human immunodeficiency virus 1, NL43, MT4, 120 h, read-out: antiviral activity (EC50), MT-4 cells infected with HIV-1 NL4-3 strain (MOI 0.05), cultured 5 days, Cell Titer-Glo
[3] = Human immunodeficiency virus 1, NL43, MT4, 120 h, read-out: antiviral activity (EC50)
[4] = Human immunodeficiency virus 1, NL43, MT4, 120 h, antiviral activity, MT-4 cells infected with HIV-1 NL4-3 (MOI 0.05), 5 days culture, Cell Titer-Glo luminescence, read-out: EC50

| Compound | EC50 [1] [nM] | further results |
| --- | --- | --- |
| CCOC[C@H]1C[C@@]12Cn1cc(C(=O)NCc3ccc(F)cc3F)c(=O)c(O)c1C(=O)N2C(C)C [Example T43, (1S,2S)-N-(2,4-difluorobenzyl)-2-(ethoxymethyl)-9′-hydroxy-2′-isopropyl-1′,8′-dioxo-1′,2′,4′,8′-tetrahydrospiro[cyclopropane-1,3′-pyrido[1,2-a]pyrazine]-7′-carboxamide] | 5.3 | – |
| CCOc1ccc(CNC(=O)c2cn3c(c(O)c2=O)C(=O)N(C)C[C@@]32C[C@@H]2COC)c(F)c1Cl [Example T37, (1S,2S)-N-(3-chloro-4-ethoxy-2-fluorobenzyl)-9′-hydroxy-2-(methoxymethyl)-2′-methyl-1′,8′-dioxo-1′,2′,3′,8′-tetrahydrospiro[cyclopropane-1,4′-pyrido[1,2-a]pyrazine]-7′-carboxamide hydrochloride] | – | EC50 [2]: 93 nM |
| CCN1C(=O)c2c(O)c(=O)c(C(=O)NCc3ccc(F)cc3F)cn2C[C@@]12C[C@@H]2CO [Example T39, (1S,2S)-N-(2,4-difluorobenzyl)-2′-ethyl-9′-hydroxy-2-(hydroxymethyl)-1′,8′-dioxo-1′,2′,4′,8′-tetrahydrospiro[cyclopropane-1,3′-pyrido[1,2-a]pyrazine]-7′-carboxamide hydrochloride] | – | EC50 [2]: 2.8 nM |
| CO[C@H]1C[C@]2(CN(C)C(=O)c3c(O)c(=O)c(C(=O)NCc4cccc(Cl)c4F)cn32)C1 [Example 25, Monopotassium 7′-(3-chloro-2-fluorobenzylcarbamoyl)-cis-3-methoxy-2′-methyl-1′,8′-dioxo-1′,2′,3′,8′-tetrahydrospiro[cyclobutane-1,4′-pyrido[1,2-a]pyrazin]-9′-olate] | – | EC50 [3]: 2.1 nM |
| CN1C[C@]2(C[C@H](C(=O)O)C2)n2cc(C(=O)NCc3cccc(Cl)c3F)c(=O)c(O)c2C1=O [Example 22, 7′-(3-chloro-2-fluorobenzylcarbamoyl)-9′-hydroxy-2′-methyl-1′,8′-dioxo-1′,2′,3′,8′-tetrahydrospiro[cyclobutane-1,4′-pyrido[1,2-a]pyrazine]-cis-3-carboxylic acid hydrochloride] | – | EC50 [3]: 400 nM |
| CCO[C@H]1C[C@@]2(CN(C(C)C)C(=O)c3c(O)c(=O)c(C(=O)NCc4ccc(F)cc4F)cn32)C1 [Example S7, N-(2,4-difluorobenzyl)- trans-3-ethoxy-9′-hydroxy-2′-isopropyl-1′,8′-dioxo-1′,2′,3′,8′-tetrahydrospiro[cyclobutane-1,4′-pyrido[1,2-a]pyrazine]-7′-carboxamide hydrochloride] | – | EC50 [4]: 3.7 nM |
| COC[C@H]1C[C@]2(CN(C)C(=O)c3c(O)c(=O)c(C(=O)NCc4cccc(Cl)c4F)cn32)C1 [Example 26, N-(3-chloro-2-fluorobenzyl)-9′-hydroxy-cis-3-(methoxymethyl)-2′-methyl-1′,8′-dioxo-1′,2′,3′,8′-tetrahydrospiro[cyclobutane-1,4′-pyrido[1,2-a]pyrazine]-7′-carboxamide] | – | EC50 (MT-4 cells infected with HIV-1 NL4-3 strain (MOI 0.05), cultured 5 days, Cell Titer-Glo, read-out: antiviral activity (EC50)): 1.9 nM |
| CCO[C@H]1C[C@]2(CN(C)C(=O)c3c(O)c(=O)c(C(=O)NCc4ccc(F)cc4F)cn32)C1 [Example S51, N-(2,4-difluorobenzyl)-cis-3-ethoxy-9′-hydroxy-2′-methyl-1′,8′-dioxo-1′,2′,3′,8′-tetrahydrospiro[cyclobutane-1,4′-pyrido[1,2-a]pyrazine]-7′-carboxamide hydrochloride] | 2.4 | – |
| COC[C@H]1C[C@@]12Cn1cc(C(=O)NCc3ccc(F)cc3F)c(=O)c(O)c1C(=O)N2C(C)C [Example T41, (1S,2S)-N-(2,4-difluorobenzyl)-9′-hydroxy-2′-isopropyl-2-(methoxymethyl)-1′,8′-dioxo-1′,2′,4′,8′-tetrahydrospiro[cyclopropane-1,3′-pyrido[1,2-a]pyrazine]-7′-carboxamide] | 2.2 | – |
| CN1C[C@]2(C[C@@H](OCc3ccccc3)C2)n2cc(C(=O)NCc3ccc(F)cc3F)c(=O)c(O)c2C1=O [Example S9, trans-3-(benzyloxy)-N-(2,4-difluorobenzyl)-9′-hydroxy-2′-methyl-1′,8′-dioxo-1′,2′,3′,8′-tetrahydrospiro[cyclobutane-1,4′-pyrido[1,2-a]pyrazine]-7′-carboxamide hydrochloride] | – | EC50 [4]: 5.2 nM |
| COC[C@H]1C[C@@]2(CN(C(C)C)C(=O)c3c(O)c(=O)c(C(=O)NCc4ccc(F)cc4F)cn32)C1 [Example S25, N-(2,4-difluorobenzyl)-9′-hydroxy-2′-isopropyl-trans-3-(methoxymethyl)-1′,8′-dioxo-1′,2′,3′,8′-tetrahydrospiro[cyclobutane-1,4′-pyrido[1,2-a]pyrazine]-7′-carboxamide hydrochloride] | 7 | – |
| CC(C)N1C[C@]2(C[C@H]2CO)n2cc(C(=O)NCc3cccc(Cl)c3F)c(=O)c(O)c2C1=O [Example T5, (1R,2R)-N-(3-chloro-2-fluorobenzyl)-9′-hydroxy-2-(hydroxymethyl)-2′-isopropyl-1′,8′-dioxo-1′,2′,3′,8′-tetrahydrospiro[cyclopropane-1,4′-pyrido[1,2-a]pyrazine]-7′-carboxamide hydrochloride] | – | EC50 [2]: 4 nM |
| CCN1C[C@]2(C[C@H]2COC)n2cc(C(=O)NCc3cccc(Cl)c3F)c(=O)c(O)c2C1=O [Example T20, (1R,2R)-N-(3-chloro-2-fluorobenzyl)-2′-ethyl-9′-hydroxy-2-(methoxymethyl)-1′,8′-dioxo-1′,2′,3′,8′-tetrahydrospiro[cyclopropane-1,4′-pyrido[1,2-a]pyrazine]-7′-carboxamide hydrochloride] | – | EC50 [2]: 3.5 nM |
| COC[C@H]1C[C@]2(CN(C)C(=O)c3c([O][Ca][O]c4c5n(cc(C(=O)NCc6cccc(Cl)c6F)c4=O)[C@]4(CN(C)C5=O)C[C@H](COC)C4)c(=O)c(C(=O)NCc4cccc(Cl)c4F)cn32)C1 [Example 30, Monocalcium bis[7′-(3-chloro-2-fluorobenzylcarbamoyl)-cis-3-(methoxymethyl)-2′-methyl-1′,8′-dioxo-1′,2′,3′,8′-tetrahydrospiro[cyclobutane-1,4′-pyrido[1,2-a]pyrazin]-9′-olate]] | 1.1 | – |
| CCCO[C@H]1C[C@@]2(CN(C)C(=O)c3c(O)c(=O)c(C(=O)NCc4cccc(Cl)c4F)cn32)C1 [Example S42, N-(3-chloro-2-fluorobenzyl)-9′-hydroxy-2′-methyl-1′,8′-dioxo-trans-3-propoxy-1′,2′,3′,8′-tetrahydrospiro[cyclobutane-1,4′-pyrido[1,2-a]pyrazine]-7′-carboxamide hydrochloride] | 4.3 | – |
| CCCCCCCCCCCCCCCC(=O)Oc1c2n(cc(C(=O)NCc3cccc(Cl)c3F)c1=O)[C@]1(CN(C)C2=O)C[C@H](COC)C1 [Example S69, 7′-(3-chloro-2-fluorobenzylcarbamoyl)-cis-3-(methoxymethyl)-2′-methyl-1′,8′-dioxo-1′,2′,3′,8′-tetrahydrospiro[cyclobutane-1,4′-pyrido[1,2-a]pyrazin]-9′-yl palmitate] | 1 | – |
| COC[C@H]1C[C@]2(CN(C)C(=O)c3c(OC(=O)CN(C)C)c(=O)c(C(=O)NCc4cccc(Cl)c4F)cn32)C1 [Example S73, 7′-(3-chloro-2-fluorobenzylcarbamoyl)-cis-3-(methoxymethyl)-2′-methyl-1′,8′-dioxo-1′,2′,3′,8′-tetrahydrospiro[cyclobutane-1,4′-pyrido[1,2-a]pyrazin]-9′-yl 2-(dimethylamino)acetate dihydrochloride] | 1.1 | – |
| CCN1C[C@@]2(C[C@H]2COC)n2cc(C(=O)NCc3cccc(Cl)c3F)c(=O)c(O)c2C1=O [Example T30, (1S,2R)-N-(3-chloro-2-fluorobenzyl)-2′-ethyl-9′-hydroxy-2-(methoxymethyl)-1′,8′-dioxo-1′,2′,3′,8′-tetrahydrospiro[cyclopropane-1,4′-pyrido[1,2-a]pyrazine]-7′-carboxamide] | 4.4 | – |
| COC[C@H]1C[C@@]12CN(C)C(=O)c1c(O)c(=O)c(C(=O)NCc3ccc(OC)c(Cl)c3F)cn12 [Example T22, (1S,2S)-N-(3-chloro-2-fluoro-4-methoxybenzyl)-9′-hydroxy-2-(methoxymethyl)-2′-methyl-1′,8′-dioxo-1′,2′,3′,8′-tetrahydrospiro[cyclopropane-1,4′-pyrido[1,2-a]pyrazine]-7′-carboxamide hydrochloride] | – | EC50 [2]: 4.9 nM |
| CCN1C(=O)c2c(O)c(=O)c(C(=O)NCc3cccc(Cl)c3F)cn2C[C@]12C[C@@H](CO)C2 [Example S58, N-(3-chloro-2-fluorobenzyl)-2′-ethyl-9′-hydroxy-trans-3-(hydroxymethyl)-1′,8′-dioxo-1′,2′,4′,8′-tetrahydrospiro[cyclobutane-1,3′-pyrido[1,2-a]pyrazine]-7′-carboxamide hydrochloride] | 6.8 | – |
| CO[C@H]1C[C@@]2(Cn3cc(C(=O)NCc4cccc(Cl)c4F)c(=O)c(O)c3C(=O)N2C)C1 [Example S62, N-(3-chloro-2-fluorobenzyl)-9′-hydroxy-trans-3-methoxy-2′-methyl-1′,8′-dioxo-1′,2′,4′,8′-tetrahydrospiro[cyclobutane-1,3′-pyrido[1,2-a]pyrazine]-7′-carboxamide hydrochloride] | 4.6 | – |
| CC(C)N1CC2(CC(O)C2)n2cc(C(=O)NCc3ccc(F)cc3F)c(=O)c(O)c2C1=O (single isomer, unassigned) [Example S3, N-(2,4-difluorobenzyl)- trans-3,9′-dihydroxy-2′-isopropyl-1′,8′-dioxo-1′,2′,3′,8′-tetrahydrospiro[cyclobutane-1,4′-pyrido[1,2-a]pyrazine]-7′-carboxamide hydrobromide] | – | EC50 [4]: 11 nM |
| CC(C)N1C(=O)c2c(O)c(=O)c(C(=O)NCc3ccc(F)cc3F)cn2C[C@]12C[C@H](O)C2 [Example S55, N-(2,4-difluorobenzyl)-cis-3,9′-dihydroxy-2′-isopropyl-1′,8′-dioxo-1′,2′,4′,8′-tetrahydrospiro[cyclobutane-1,3′-pyrido[1,2-a]pyrazine]-7′-carboxamide hydrochloride] | 33 | – |
